For one assay, the system named is T1, mKCNK18.
T1 construct: expressed in transfected cells; host or cells: Xenopus laevis oocytes injected with cRNA (subcloned into pSGEM; clone from Prof; Dr. P. Enyedi)
As to the kind of experiment: Two-electrode voltage clamp on Xenopus oocytes expressing mKCNK18. The class given is cell-based, mouse. The settings on record: 1–1000 μM. From the text:
(§1) Human KCNK3 (TASK-1, K2P3.1) cloned into the expression vector pIRES-CD8 was a gift from Dr. Fabrice Duprat (Institut National de la Santé et de la Recherche Médicale, Antipolis, France). Human KCNK18 (hTRESK, K2P18.1), cloned into the plasmid pEXO, was a gift from Dr. P. Enyedi (Semmelweis University, Budapest, Hungary). These plasmids were linearized with the restriction enzymes BamHI and XbaI, respectively, and then used as templates for in vitro transcription. Human KCNK9 (hTASK-3, K2P9.1) cloned into the expression vector pCR4-TOPO, was purchased from Imagenes (Berlin, Germany). The plasmid was linearized with the restriction enzyme SspI, to generate a linear cDNA template for in vitro transcription. mKCNK3 was isolated from mouse heart by standard procedures and inserted into pSGEM. mKCNK9 and mKCNK18 were kindly provided by Dr. D. Bayliss (University of Virginia, Charlottesville, VA, United States) and Prof. Dr. P. Enyedi (Semmelweis University, Budapest, Hungary). Both channels were subcloned into pSGEM. The pSGEM plasmids were subsequently linearized with the restriction enzyme PacI. The capped RNAs were synthesized in the presence of the capping analog m7G(5′)ppp(5′)G using the AmpliCap-T7 Message Maker kit (Epicentre, Madison, WI, United States). The cRNA was dissolved in nuclease-free water to obtain a final concentration of 100 ng/μL. […]

Another assay concerns tongue surface. On the set-up: method as in Dawid et al., 2012. Particulars: human, filter paper on tongue; ref Dawid et al., 2012; cited from earlier work.
In the next assay the target is T2, mKCNK9 (Mus musculus, UniProt Q3LS21).
T2 construct: expressed in transfected cells; host or cells: Xenopus laevis oocytes injected with cRNA (subcloned into pSGEM; clone from Dr. D. Bayliss)
T2 sequence (Q3LS21 whole entry): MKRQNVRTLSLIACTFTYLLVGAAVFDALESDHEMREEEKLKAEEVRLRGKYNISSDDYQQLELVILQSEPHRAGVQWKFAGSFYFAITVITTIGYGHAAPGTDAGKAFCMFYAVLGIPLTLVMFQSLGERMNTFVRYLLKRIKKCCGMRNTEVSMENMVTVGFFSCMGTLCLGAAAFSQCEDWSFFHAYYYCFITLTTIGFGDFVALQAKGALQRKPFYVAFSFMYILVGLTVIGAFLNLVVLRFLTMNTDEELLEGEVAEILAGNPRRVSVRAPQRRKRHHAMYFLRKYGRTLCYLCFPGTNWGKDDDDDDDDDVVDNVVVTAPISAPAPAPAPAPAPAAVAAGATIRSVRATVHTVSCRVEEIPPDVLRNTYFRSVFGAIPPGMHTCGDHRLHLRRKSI
As to the kind of experiment: Two-electrode voltage clamp on Xenopus oocytes expressing mKCNK9. The class given is cell-based. The settings on record: 1–1000 μM.
Text: as §1

As for `O=C(/C=C/C=C/c1ccc2c(c1)OCO2)N1CCCCC1` [1a, piperine], in the assay on mKCNK18, the “effect on mKCNK18” value was “much less affected”. The pungent threshold concentration in the assay with tongue surface is on record as 3.0 nmol/cm^2. The same compound returned a half-inhibitory concentration (IC50) against mKCNK9 of 214 ± 60.1 µM.

The record behind these values is PMC5483439, “The Effect of Pungent and Tingling Compounds from Piper nigrum L. on Background K^+ Currents” (Frontiers in Pharmacology, 2017).
